The values below come from patent publication US20230398194A1 (priority 2016, published 2023).

The test system of series [1] is porcine gut microbiome. As to the kind of experiment: Piglet gut microbiome study: fecal resistome by whole genome shotgun metagenomics, ceftriaxone with or without SYN-004 (ribaxamase). The series is classed as in vivo, pig. The conditions noted are these: for blaOXA genes (extended spectrum OXA class D beta-lactamases), level in fecal microbiome / change in the mean of relative gene frequencies of acrE, baeR, emrY, mdtD, mdtN, pbp2, pbp4, AmpC (FIG. 3) / mdtD gene levels / AmpC gene frequencies / Aminoglycoside_strA gene level (FIG. 4A) / Tetracycline_tet39 gene level (FIG. 4B): CRO alone vs CRO+ribaxamase; for blaOXA genes (extended spectrum OXA class D beta-lactamases), level in fecal microbiome: 5 piglets per cohort; for AmpC gene frequencies: by Day 4, after an increase from Day −7 to Day −4 in both cohorts; for abundance of antibiotic resistance genes in the porcine gut microbiome (overall conclusion): ceftriaxone treatment alone vs with SYN-004 (ribaxamase); for Aminoglycoside_strA gene level (FIG. 4A) / Tetracycline_tet39 gene level (FIG. 4B): day 4 after antibiotic treatment, 5 animals per cohort. As for the experimental part:
See Table 2 and FIG. 1 for study design and timeline. Animals were acclimated for 14 days prior to study initiation. Ceftriaxone (CRO) was administered daily for 7 days and animals that received SYN-004 (ribaxamase) starting the day before antibiotic treatment for 9 consecutive days. Feces were collected on Study Days −7, −4, 4, and 8. Fecal DNA was isolated and subjected to whole genome shotgun metagenomics analyses. The community resistome, the collection of antibiotic resistance genes in the microbiome, was identified by comparison to a curated antibiotic resistance gene database.
Two groups of 5 normal piglets each were used in this study. Group 1 animals were treated with ceftriaxone (IV, 1× per day, 50 mg/kg) for 7 consecutive days and Group 2 animals received ceftriaxone (IV, 1× per day, 50 mg/kg) for 7 consecutive days and SYN-004 (ribaxamase, orally, 4× per day, 75 mg/dose) for 9 consecutive days starting the day before ceftriaxone delivery.
Normal piglets (2 months old, approximately 50 lbs) were acclimated for 14 days prior to study initiation. Two cohorts of 5 animals each were used for this study, Group 1 received ceftriaxone alone and Group 2 received ceftriaxone and SYN-004 (ribaxamase), as indicated in Table 2. Stool was collected at 4 time points, two prior to treatment, at Study Days −7 and −4, and two during treatment at Study Day 4 and 8.
Total DNA was isolated from fecal specimens, using the MOBIO Power-Soil® DNA Isolation Kit (Qiagen, Germantown, MD), following the manufacturer's instructions. Each DNA sample was normalized in 3-18 uL of nuclease-free water for a final concentration of 0.5 ng/uL using the Biomek FX liquid handler (Beckman Coulter Life Sciences, Brea, CA). Libraries were constructed using the Nextera XT Library Prep Kit (illumine, San Diego, CA). For each sample, an input of 0.5 ng was used in the tagmentation reaction, followed by 13 cycles of PCR amplification using Nextera i7 and i5 index primers and 2× KAPA master mix per the modified Nextera XT protocol. The PCR products were purified using 1.0× speed beads and eluted in 15 ul of nuclease-free water. The final libraries were quantified by PicoGreen fluorometric assay (100× final dilution) and the concentrations were in the range of 0.1-4.0 ng/ul. The libraries were pooled, based on concentration determined by PicoGreen and loaded onto a high sensitivity (HS) chip run on the Caliper LabChipGX (Perkin Elmer, Waltham, MA). The base pair size reported was in the range of 301-680 bp. Each pool of 64 was run across 8 lanes of an Illumina HiSeq v3 flowcell, targeting 100 bp paired end reads per sample.
Briefly, raw, unassembled shotgun sequence reads were probed against the CosmosID, Inc. curated antibiotic resistance gene database.

The nature of series [2]: Amoxicillin serum levels (LC/MS/MS) in dogs given oral amoxicillin with or without SYN-004. In kind it is in vivo, dog. The conditions noted are these: for amoxicillin serum levels (area under the curve), amoxicillin alone vs amoxicillin+SYN-004: amoxicillin 40 mg/kg/dose oral TID +/- SYN-004 10 mg capsule. As for the experimental part: Amoxicillin serum levels were plotted for each group for each blood collection day as mean+standard deviation for each time point. Area under the curve was calculated for each group for each bleed day (day 1 and day 6) and were compared statistically using one-way ANOVA with Dunnett's multiple comparison tests (Graph Pad Prism 7.03 software).

Series [3] concerns canine gut microbiome. As to the kind of experiment: Canine fecal resistome analysis, oral amoxicillin with or without SYN-004. The conditions noted are these: for abundance of antibiotic resistance genes in the canine gut microbiome (overall conclusion): oral amoxicillin exposure alone vs with SYN-004; for change in the mean of relative gene frequencies of selected resistance genes (FIG. 9): amoxicillin alone vs amoxicillin+SYN-004. The series is classed as in vivo, dog. As for the experimental part: To determine if SYN-004 affected the abundance of antibiotic resistance genes, resistome analyses were performed.
Several genes were selected for further analysis. For each selected gene, the change in the mean of relative gene frequencies from pretreatment to post treatment was compared in the amoxicillin alone or the amoxicillin+SYN-004 cohorts (FIG. 9).

Series [4] has as its system fecal microbiomes. The conditions noted are these: for effect on microbiota populations in the GI tract (conclusion): oral amoxicillin alone vs with SYN-004; for position of post treatment fecal microbiomes in Principal Coordinate Analysis (Bray-Curtis, FIG. 7): post treatment vs pretreatment cluster, amoxicillin alone vs amoxicillin+SYN-004, 5 dogs per cohort.
Protocol: The ability of a delayed-release formulation of SYN-004 (ribaxamase), to mitigate the propagation of antibiotic resistance genes caused by exposure of the gut microbiota to oral amoxicillin was evaluated in normal, seven month old female beagles. Animals were acclimated for 24 days prior to dosing initiation. Animals (n=10, 5 animals per cohort) received oral amoxicillin (40 mg/kg/dose, reconstituted in apple juice) three times a day+/−one capsule of SYN-004 (10 mg) for 5 days, with the last dose on the morning of day 6. The animals received 16 total doses of amoxicillin+/−SYN-004. Fecal samples were collected prior to antibiotic dosing and after the last dose. Blood was collected after the first antibiotic dose on day 1 and after the last dose on day 6. On each blood collection day, blood was collected from each animal at seven time points, 0.5, 1, 2, 3, 4, 6, and 8 hrs. Amoxicillin serum levels were measured using a validated liquid chromatography (LC) method with tandem mass spectrometry detection (LC/MS/MS). DNA isolated from fecal samples was subjected to whole genome shotgun sequencing and metagenomics analyses.
DNA isolated from the fecal samples was subjected to whole genome sequencing and analyzed using the CosmosID, Inc. bioinformatics software package. Analyses included identification of the microbiota species present in the fecal microbiomes and identification of antibiotic-resistance genes based on the percentage gene coverage for each gene and quantified by determining the frequency (%) of each gene in each sample.
To determine if SYN-004 protected the fecal microbiomes from damage caused by oral amoxicillin, the microbiome bacterial populations were compared using a three coordinate Principal Coordinate Analysis (CosmosID, Inc. bioinformatics software). Distance between points indicates degree of difference in sample diversity with points close together more similar.
The conditions of series [5]: ertapenem 30 mg/kg IV once a day; P2A 50 mg PO 4 times a day; expected result. As to the method:
Animals (n=16, 8 animals per cohort) receive ertapenem (30 mg/kg/dose, IV, once a day for 4 days)+/−one capsule of P2A (50 mg, PO, 4 times a day). The P2A is started the day before antibiotic treatment and continues with one final dose the morning of day 5. […] Blood is collected on day 3 after 3 ertapenem doses. Blood is collected at 3 timepoints, 1 hr, 2 hrs, and 3 hrs after ertapenem.

Regarding “SYN-004: beta-lactamase with the amino acid sequence of SEQ ID NO: 1; D276N mutant of P1A”, in series [1] (Day 4), the “blaOXA genes (extended spectrum OXA class D beta-lactamases), level in fecal microbiome” value is recorded as “absent or observed at lower frequencies”. Also, in series [1] (Day −4 to Day 4), the “change in the mean of relative gene frequencies of acrE, baeR, emrY, mdtD, mdtN, pbp2, pbp4, AmpC (FIG. 3)” value is recorded as “decreased for each gene in the CRO+ribaxamase group except for pbp2” and the mdtD gene levels result is “reduced”. Also, the “pbp2 relative gene frequency change” value in series [1] (Day −4 to Day 4, CRO+ribaxamase) is “increased only slightly above baseline”. Further, in series [1], the AmpC gene frequencies result is “decreased to levels similar to the Day −7 frequencies”, the “abundance of antibiotic resistance genes in the porcine gut microbiome (overall conclusion)” value was “attenuated this enrichment process”, the “Aminoglycoside_strA gene level (FIG. 4A)” value is on record as “remained low or absent in all animals” and the “Tetracycline_tet39 gene level (FIG. 4B)” value is given as “only one animal in the CRO+ribaxamase cohort was identified with a high level”. Also, the “antibiotic resistance gene frequencies in the presence of ribaxamase” value in series [1] (with ceftriaxone, vs pre-antibiotic treatment levels) is “reduced or maintained at pre-antibiotic treatment levels”. Also, the “amoxicillin serum levels (area under the curve), amoxicillin alone vs amoxicillin+SYN-004” value in series [2] (day 1, p=0.703) is reported as “not significantly different”. Further, the “amoxicillin serum levels (area under the curve), amoxicillin alone vs amoxicillin+SYN-004” value in series [2] (day 6, p=0.098) was “not significantly different”. In series [2] (delayed release SYN-004 formulation, dog), the “interference with amoxicillin systemic absorption from the gastrointestinal tract” value is reported as “did not interfere”. The “abundance of antibiotic resistance genes in the canine gut microbiome (overall conclusion)” value in series [3] was “attenuated this enrichment process”. Besides, the “change in the mean of relative gene frequencies of selected resistance genes (FIG. 9)” value in series [3] (pretreatment to post treatment) was “decreased for each gene”. The “marA gene levels, reduction” value in series [3] (pretreatment to post treatment, amoxicillin+SYN-004 cohort) was “approximately 50%”. The “antibiotic resistance gene frequencies in the presence of SYN-004” value in series [3] (with oral amoxicillin) is listed as “reduced”. Also, in series [4], the “effect on microbiota populations in the GI tract (conclusion)” value is “can mitigate the damage caused by oral amoxicillin” and the “position of post treatment fecal microbiomes in Principal Coordinate Analysis (Bray-Curtis, FIG. 7)” value is “also clustered with the pretreatment samples”.

Take `CC1(C)S[C@@H]2[C@H](NC(=O)[C@H](N)c3ccc(O)cc3)C(=O)N2[C@H]1C(=O)O` [amoxicillin]: in series [3] (amoxicillin alone compared to amoxicillin+SYN-004 cohort), the “abundance of antibiotic resistance genes, pretreatment to post treatment” value is recorded as “higher abundance of antibiotic resistance genes post treatment”. Further, the “TEM and OXA beta-lactamase genes (e.g. TEM-113, OXA-136, FIG. 8), detection” value in series [3] (not detected prior to amoxicillin exposure) is on record as “detected only at day 6 in the amoxicillin alone cohort”. Also, in series [3], the “abundance of antibiotic resistance genes in the canine gut microbiome (overall conclusion)” value was “increased the abundance of antibiotic resistance genes”. Further, the marA gene levels entry in series [3] (pretreatment to post treatment, amoxicillin alone) was “almost doubled”. Besides, in series [3] (pretreatment to post treatment), the “change in the mean of relative gene frequencies of selected resistance genes (FIG. 9)” value is “increased for each gene”. Further, in series [4], the “effect on microbiota populations in the GI tract (conclusion)” value was “disrupts the microbiota populations in the GI tract” and the “position of post treatment fecal microbiomes in Principal Coordinate Analysis (Bray-Curtis, FIG. 7)” value was 4/5 post treatment samples were plotted far from the pretreatment cluster.

As for `CO/N=C(\C(=O)N[C@@H]1C(=O)N2C(C(=O)O)=C(CSc3nc(=O)c(=O)[nH]n3C)CS[C@H]12)c1csc(N)n1` [Ceftriaxone, reference compound], the “blaCTX-M_82 or blaCFX_A4 genes (class A serine beta-lactamases), level in fecal microbiome” value in series [1] (Day 4, CRO alone) is recorded as “detected at Day 4 at high levels in two of the CRO animals”. Also, the “blaOXA genes (extended spectrum OXA class D beta-lactamases), level in fecal microbiome” value in series [1] (Day 4) is “present at high levels in two of five CRO animals”. Also, in series [1] (Day −4 to Day 4), the “change in the mean of relative gene frequencies of acrE, baeR, emrY, mdtD, mdtN, pbp2, pbp4, AmpC (FIG. 3)” value is “increased for each gene” and the mdtD gene levels result is recorded as “doubled”. Moreover, in series [1], the AmpC gene frequencies entry is listed as “continued to increase”, the “abundance of antibiotic resistance genes in the porcine gut microbiome (overall conclusion)” value is “increased the abundance of antibiotic resistance genes”, the “Aminoglycoside_strA gene level (FIG. 4A)” value is on record as “detected at high levels in 4 of 5 animals” and the “Tetracycline_tet39 gene level (FIG. 4B)” value is “detected at high levels in 4 of 5 animals”. Besides, the “abundance of antibiotic resistance genes in the fecal microbiome (heatmaps, FIG. 2A, 2B)” value in series [1] (post-treatment Day 4, CRO 50 mg/kg IV 1x per day alone vs CRO+ribaxamase 75 mg oral QID) is given as “higher abundance of antibiotic resistance genes”.

B1: P2A: carbapenemase, beta-lactamase polypeptide of SEQ ID NO: 6 (protein)
chain: ETGTISISQLNKNVWVHTELGYFNGEAVPSNGLVLNTSKGLVLVDSSWDNKLTKELIEMVEKKFQKRVTDVIITHAHADRIGGITALKERGIKAHSTALTAELAKNSGYEEPLGDLQTITSLKFGNTKVETFYPGKGHTEDNIVVWLPQYQILAGGCLVKSAEAKDLGNVADAYVNEWSTSIENVLKRYGNINSVVPGHGEVGDKGLLLHTLDLLK
In the case of B1, the “ertapenem serum levels, ertapenem alone vs ertapenem+P2A” value in series [5] was “not expected to be different”.
